According to ChEMBL document CHEMBL4229379, “Synthesis and structure-activity relationship of novel bisindole amidines active against MDR Gram-positive and Gram-negative bacteria” (Eur J Med Chem, 2018):
Values after ≈ are worked out from the molar mass of the structure shown.

Tests used:
Enterococcus faecium [1] = test: Antibacterial activity against vancomycin-resistant Enterococcus faecium 12-1 after 18 hrs by CLSI broth microdilution method; type: functional; details: 12-1, 18 h
Enterobacter cloacae = test: Antibacterial activity against Enterobacter cloacae ATCC 43560 after 18 hrs by CLSI broth microdilution method; type: functional; details: ATCC 43560, 18 h
Klebsiella pneumoniae [2] = test: Antibacterial activity against new delhi metallo-beta-lactamase-1 harboring Klebsiella pneumoniae ATCC BAA-2146 after 18 hrs by CLSI broth microdilution method; type: functional; details: ATCC BAA-2146, 18 h
Klebsiella pneumoniae [3] = test: Antibacterial activity against extended-spectrum beta-lactamase harboring Klebsiella pneumoniae ATCC 700603 after 18 hrs by CLSI broth microdilution method; type: functional; details: Klebsiella pneumoniae, 700603, 18 h
Klebsiella pneumoniae [4] = test: Antibacterial activity against extended-spectrum beta-lactamase deficient Klebsiella pneumoniae 7 after 18 hrs by CLSI broth microdilution method; type: functional; details: Klebsiella pneumoniae, 7, 18 h
[5] = test system: Staphylococcus epidermidis; test: Antibacterial activity against methicillin-sensitive Staphylococcus epidermidis ATCC 12228 after 18 hrs by CLSI broth microdilution method; type: functional; details: ATCC 12228, 18 h
Klebsiella pneumoniae [6] = test: Antibacterial activity against extended-spectrum beta-lactamase harboring Klebsiella pneumoniae 12-8 after 18 hrs by CLSI broth microdilution method; type: functional; details: 12-8, 18 h
Enterococcus faecium [7] = test: Antibacterial activity against vancomycin-sensitive Enterococcus faecium 12-3 after 18 hrs by CLSI broth microdilution method; type: functional; details: 12-3, 18 h
Staphylococcus aureus [8] = test: Antibacterial activity against methicillin-resistant Staphylococcus aureus ATCC 33591 after 18 hrs by CLSI broth microdilution method; type: functional; details: ATCC 33591, 18 h
[9] = test system: Staphylococcus epidermidis; test: Antibacterial activity against methicillin-sensitive Staphylococcus epidermidis 12-6 after 18 hrs by CLSI broth microdilution method; type: functional; details: 12-6, 18 h
Serratia marcescens = test: Antibacterial activity against Serratia marcescens ATCC 21074 after 18 hrs by CLSI broth microdilution method; type: functional; details: ATCC 21074, 18 h
Citrobacter freundii = test: Antibacterial activity against Citrobacter freundii ATCC 43864 after 18 hrs by CLSI broth microdilution method; type: functional; details: ATCC 43864, 18 h
Enterococcus faecalis [10] = test: Antibacterial activity against vancomycin-sensitive Enterococcus faecalis 12-5 after 18 hrs by CLSI broth microdilution method; type: functional; details: 12-5, 18 h
Pseudomonas aeruginosa [11] = test: Antibacterial activity against Pseudomonas aeruginosa ATCC 27853 after 18 hrs by CLSI broth microdilution method; type: functional; details: ATCC 27853, 18 h
[12] = test system: Acinetobacter calcoaceticus; test: Antibacterial activity against Acinetobacter calcoaceticus ATCC 19606 after 18 hrs by CLSI broth microdilution method; type: functional; details: ATCC 19606, 18 h
Enterococcus faecalis [13] = test: Antibacterial activity against vancomycin-sensitive Enterococcus faecalis ATCC 29212 after 18 hrs by CLSI broth microdilution method; type: functional; details: ATCC 29212, 18 h
Proteus mirabilis = test: Antibacterial activity against Proteus mirabilis 12-6 after 18 hrs by CLSI broth microdilution method; type: functional; details: 12-6, 18 h
Enterococcus faecium [14] = test: Antibacterial activity against vancomycin-resistant Enterococcus faecium ATCC 700221 after 18 hrs by CLSI broth microdilution method; type: functional; details: ATCC 700221, 18 h
Escherichia coli [15] = test: Antibacterial activity against extended-spectrum beta-lactamase deficient Escherichia coli ATCC 25922 after 18 hrs by CLSI broth microdilution method; type: functional; details: ATCC 25922, 18 h
[16] = test system: Stenotrophomonas maltophilia; test: Antibacterial activity against Stenotrophomonas maltophilia ATCC 13636 after 18 hrs by CLSI broth microdilution method; type: functional; details: ATCC 13636, 18 h
Enterococcus faecalis [17] = test: Antibacterial activity against vancomycin-resistant Enterococcus faecalis 09-9 after 18 hrs by CLSI broth microdilution method; type: functional; details: 09-9, 18 h
Staphylococcus aureus [18] = test: Antibacterial activity against methicillin-resistant Staphylococcus aureus 12-33 after 18 hrs by CLSI broth microdilution method; type: functional; details: 12-33, 18 h
Providencia rettgeri = test: Antibacterial activity against Providencia rettgeri ATCC 31052 after 18 hrs by CLSI broth microdilution method; type: functional; details: ATCC 31052, 18 h
Escherichia coli [19] = test: Antibacterial activity against extended-spectrum beta-lactamase harboring Escherichia coli 12-15 after 18 hrs by CLSI broth microdilution method; type: functional; details: 12-15, 18 h
Staphylococcus aureus [20] = test: Antibacterial activity against methicillin-sensitive Staphylococcus aureus ATCC 29213 after 18 hrs by CLSI broth microdilution method; type: functional; details: ATCC 29213, 18 h
Staphylococcus aureus [21] = test: Antibacterial activity against methicillin-sensitive Staphylococcus aureus 12-28 after 18 hrs by CLSI broth microdilution method; type: functional; details: 12-28, 18 h
Escherichia coli [22] = test: Antibacterial activity against extended-spectrum beta-lactamase deficient Escherichia coli 1515 after 18 hrs by CLSI broth microdilution method; type: functional; details: Escherichia coli, 1515, 18 h
[23] = Cytotoxicity against HEK293T cells assessed as reduction in cell viability after 48 hrs by MTS assay; type: cell-based, HEK-293T; details: human
Escherichia coli [24] = test: Antibacterial activity against extended-spectrum beta-lactamase deficient Escherichia coli 12-14 after 18 hrs by CLSI broth microdilution method; type: functional; details: 12-14, 18 h
Staphylococcus aureus [25] = test: Antibacterial activity against methicillin-sensitive Staphylococcus aureus 15 after 18 hrs by CLSI broth microdilution method; type: functional; details: Staphylococcus aureus, 15, 18 h
Klebsiella aerogenes = test: Antibacterial activity against Enterobacter aerogenes ATCC 13048 after 18 hrs by CLSI broth microdilution method; type: functional; details: ATCC 13048, 18 h
Klebsiella pneumoniae [26] = test: Antibacterial activity against extended-spectrum beta-lactamase deficient Klebsiella pneumoniae 12-4 after 18 hrs by CLSI broth microdilution method; type: functional; details: 12-4, 18 h
Proteus vulgaris = test: Antibacterial activity against Proteus vulgaris ATCC 29905 after 18 hrs by CLSI broth microdilution method; type: functional; details: ATCC 29905, 18 h
[27] = test system: Staphylococcus epidermidis; test: Antibacterial activity against methicillin-resistant Staphylococcus epidermidis 12-8 after 18 hrs by CLSI broth microdilution method; type: functional; details: 12-8, 18 h
Enterococcus faecalis [28] = test: Antibacterial activity against vancomycin-resistant Enterococcus faecalis ATCC 51299 after 18 hrs by CLSI broth microdilution method; type: functional; details: ATCC 51299, 18 h
Pseudomonas aeruginosa [29] = test: Antibacterial activity against Pseudomonas aeruginosa PAO1 after 18 hrs by CLSI broth microdilution method; type: functional; details: PAO1, 18 h
Pseudomonas aeruginosa [30] = test: Antibacterial activity against Pseudomonas aeruginosa 12-16 after 18 hrs by CLSI broth microdilution method; type: functional; details: 12-16, 18 h

| Compound | MIC (Enterococcus faecium [1]) | MIC (Enterobacter cloacae) | MIC (Klebsiella pneumoniae [2]) | MIC (Klebsiella pneumoniae [3]) | MIC (Klebsiella pneumoniae [4]) | MIC [5] | MIC (Klebsiella pneumoniae [6]) | MIC (Enterococcus faecium [7]) | MIC (Staphylococcus aureus [8]) | MIC [9] | MIC (Serratia marcescens) | MIC (Citrobacter freundii) | MIC (Enterococcus faecalis [10]) | MIC (Pseudomonas aeruginosa [11]) | MIC [12] | MIC (Enterococcus faecalis [13]) | MIC (Proteus mirabilis) | MIC (Enterococcus faecium [14]) | MIC (Escherichia coli [15]) | MIC [16] | also measured |
| --- | --- | --- | --- | --- | --- | --- | --- | --- | --- | --- | --- | --- | --- | --- | --- | --- | --- | --- | --- | --- | --- |
| CN(C)C(=N)c1ccc2cc(-c3cccc(-c4cc5ccc(C(=N)N(C)C)cc5[nH]4)c3)[nH]c2c1 | 8 µg/mL (≈ 17.8 µM) | > 128 µg/mL | > 128 µg/mL | > 128 µg/mL | > 128 µg/mL | 8 µg/mL (≈ 17.8 µM) | > 128 µg/mL | > 128 µg/mL | 4 µg/mL (≈ 8.92 µM) | 32 µg/mL (≈ 71.3 µM) | > 128 µg/mL | > 128 µg/mL | > 128 µg/mL | > 128 µg/mL | > 128 µg/mL | 64 µg/mL (≈ 143 µM) | > 128 µg/mL | 16 µg/mL (≈ 35.7 µM) | 64 µg/mL (≈ 143 µM) | > 128 µg/mL | MIC (Enterococcus faecalis [17]): 64 µg/mL (≈ 143 µM); MIC (Staphylococcus aureus [18]): 8 µg/mL (≈ 17.8 µM); MIC (Providencia rettgeri): 128 µg/mL (≈ 285 µM); MIC (Escherichia coli [19]): 64 µg/mL (≈ 143 µM); MIC (Staphylococcus aureus [20]): 8 µg/mL (≈ 17.8 µM); MIC (Staphylococcus aureus [21]): 4 µg/mL (≈ 8.92 µM); MIC (Escherichia coli [22]): 64 µg/mL (≈ 143 µM); CC50 at 48 h [23]: 52.2 µg/mL (≈ 116 µM); MIC (Escherichia coli [24]): 64 µg/mL (≈ 143 µM); MIC (Staphylococcus aureus [25]): 4 µg/mL (≈ 8.92 µM); MIC (Klebsiella aerogenes): > 128 µg/mL; MIC (Klebsiella pneumoniae [26]): > 128 µg/mL; MIC (Proteus vulgaris): > 128 µg/mL; MIC [27]: 16 µg/mL (≈ 35.7 µM); MIC (Enterococcus faecalis [28]): 128 µg/mL (≈ 285 µM); MIC (Pseudomonas aeruginosa [29]): > 128 µg/mL; MIC (Pseudomonas aeruginosa [30]): > 128 µg/mL |
| CN(C)C(=N)c1ccc2cc(-c3cnc(-c4cc5ccc(C(=N)N(C)C)cc5[nH]4)s3)[nH]c2c1 | 1 µg/mL (≈ 2.19 µM) | 2 µg/mL (≈ 4.39 µM) | 4 µg/mL (≈ 8.78 µM) | 8 µg/mL (≈ 17.6 µM) | 4 µg/mL (≈ 8.78 µM) | 0.12 µg/mL (≈ 0.263 µM) | 4 µg/mL (≈ 8.78 µM) | 2 µg/mL (≈ 4.39 µM) | 0.25 µg/mL (≈ 0.549 µM) | 0.125 µg/mL (≈ 0.274 µM) | 8 µg/mL (≈ 17.6 µM) | 4 µg/mL (≈ 8.78 µM) | 2 µg/mL (≈ 4.39 µM) | 16 µg/mL (≈ 35.1 µM) | 16 µg/mL (≈ 35.1 µM) | 1 µg/mL (≈ 2.19 µM) | 8 µg/mL (≈ 17.6 µM) | 1 µg/mL (≈ 2.19 µM) | 2 µg/mL (≈ 4.39 µM) | 16 µg/mL (≈ 35.1 µM) | MIC (Enterococcus faecalis [17]): 0.5 µg/mL (≈ 1.1 µM); MIC (Staphylococcus aureus [18]): 1 µg/mL (≈ 2.19 µM); MIC (Providencia rettgeri): 2 µg/mL (≈ 4.39 µM); MIC (Escherichia coli [19]): 2 µg/mL (≈ 4.39 µM); MIC (Staphylococcus aureus [20]): 0.25 µg/mL (≈ 0.549 µM); MIC (Staphylococcus aureus [21]): 0.5 µg/mL (≈ 1.1 µM); MIC (Escherichia coli [22]): 2 µg/mL (≈ 4.39 µM); CC50 at 48 h [23]: 2.01 µg/mL (≈ 4.41 µM); MIC (Escherichia coli [24]): 2 µg/mL (≈ 4.39 µM); MIC (Staphylococcus aureus [25]): 0.25 µg/mL (≈ 0.549 µM); MIC (Klebsiella aerogenes): 4 µg/mL (≈ 8.78 µM); MIC (Klebsiella pneumoniae [26]): 4 µg/mL (≈ 8.78 µM); MIC (Proteus vulgaris): 4 µg/mL (≈ 8.78 µM); MIC [27]: 0.25 µg/mL (≈ 0.549 µM); MIC (Enterococcus faecalis [28]): 1 µg/mL (≈ 2.19 µM); MIC (Pseudomonas aeruginosa [29]): > 64 µg/mL; MIC (Pseudomonas aeruginosa [30]): > 64 µg/mL |
